For eleven compounds, IC50, Kd and Ki results are on record in ChEMBL document CHEMBL4177651, “RNA as a small molecule druggable target” (Bioorg Med Chem Lett, 2017).

One assay relates to Hepatitis C virus. The assay can be described thus: Antiviral activity against Hepatitis C virus genotype 1b infected in BM4-5 FEO replicon cells after 48 hrs by bright-glo luciferase reporter gene assay. It is filed as functional, organism-based, Hepacivirus hominis. The settings on record: BM4-5, 48 h. A general note: Replicon systems follow genome replication, usually without infectious particles.

In a further assay the target is Quadruplex DNA. The experiment in a line: Binding affinity to biotin-labeled c-Myc Pu22 G-quadruplex DNA (unknown origin) assessed as […] by surface plasmon resonance assay. It is filed as nucleic-acid assay. (In general: In SPR one partner is held on a chip, and binding of the other changes the refractive index at the surface.)
A short description of assay [1]: Binding affinity to 1A1 Bacillus subtilis xpt-pbuX RNA guanine riboswitch. The settings on record: read-out: Kd(app).
The nature of assay [2]: Binding affinity to Aspergillus oryzae RNA TPP riboswitch after 40 hrs by SDS-PAGE analysis. The settings on record: read-out: Kd(app).
A short description of assay [3]: Binding affinity bacterial RNA purine riboswitch sequence by isothermal titration calorimetry. Further details: species or system Bacteria. The settings on record: read-out: Kd(app). In general terms: In ITC the heat of successive injections is recorded.
Assay [4] in a line: Inhibition of poly(CUG) RNA (unknown origin) splicing expressed in human Hela cells assessed as decrease in toxicity after 24 hrs by WST-1 assay. It is filed as cell-based.
Assay [5] is described as follows: Binding affinity to 1A1 Bacillus subtilis 179 lysC RNA lysine riboswitch by probing analysis. Conditions: read-out: Kd(app).
Assay [6] in a line: Inhibition of [gamma-32P]ATP labelled (CUG)4 RNA (unknown origin) binding to recombinant His6-tagged MBNL1N (1 to 272 residues) after 10 -15 mins incubation in presence of tRNA by SDS-PAGE analysis.
Assay [7] in a line: Binding affinity to Bacillus subtilis ribD RNA FMN riboswitch after 40 to 48 hrs by SDS-PAGE analysis. The settings on record: read-out: Kd(app).
Assay [8] can be described thus: Inhibition of poly(CUG) RNA (unknown origin) binding to recombinant N-terminal PL-MBNL1 preincubated for 30 mins followed by protein addition after 1 hr in presence of tRNA by enzyme fragment complementation assay.

As usually defined, the IC50 is the concentration that inhibits the measured activity by half. Higher therefore signals weaker potency in that assay. In the assay on Hepatitis C virus, `CC(=O)c1ccc(C(=O)N[C@@H](CCCCN)C(=O)N2C[C@H](N)C[C@H](N)C2)cc1` gave an IC50 of 10 µM. This lies in the double-digit micromolar range. Turning to `Cc1ccc(NC(=O)c2c(C)oc3ccc(O)c(CN4CCCCCC4)c23)cc1`, the Kd at Quadruplex DNA is 4.5 µM. For `ONc1ncnc2[nH]cnc12`, the Kd in [1] was 0.02 µM. As to `Cc1ncc(C[n+]2cccc(CCO)c2C)c(N)n1`, the Kd in assay [2] came out at 0.02 µM. Regarding `Nc1nc(N)c2nc[nH]c2n1` [2,6-DIAMINOPURINE], the Kd in assay [3] came out at 0.004 µM.

Broadly, the Ki is a measure of affinity in units of concentration, obtained from inhibition or displacement. In the case of `O=C(Nc1ccc(-c2nc3ccccc3[nH]2)cc1)c1ccc(-c2ccc(Cl)cc2)o1`, the Ki in assay [4] turned out to be 128 µM.

For the compound `NCCS(=O)(=O)C[C@H](N)C(=O)O`, the Kd in assay [5] was found to be 2.5 µM.

For the compound `COc1ccc2nc3cc(Cl)ccc3c(NCCCCNc3nc(N)nc(N)n3)c2c1`, the Ki in assay [6] was 52 µM. Turning to `Cc1cc2nc3c(=O)[nH]c(=O)nc-3n(C[C@@H](O)[C@@H](O)[C@@H](O)CO)c2cc1N(C)C`, the Kd in [7] was 0.1 µM. With `Nc1cccc(-c2nc3cc(-c4ccc5[nH]c(-c6cccc(N)c6)nc5c4)ccc3[nH]2)c1`, the Ki in assay [4] came out at 50 µM. As to `CN(C(=O)[C@@H]1CCCN1C(=O)c1ccc2c(c1)OCO2)[C@@H](CS)C(=O)N[C@@H](CCCCN)C(=O)NCCCN`, the Ki in assay [8] stood at 3 µM.
